Data on 26 compounds can be found in ChEMBL document CHEMBL6121015, “Correction of aberrant splicing of ELP1 pre-mRNA by kinetin derivatives - A structure activity relationship study” (Eur J Med Chem, 2025).

Structures are written as SMILES. Active and inactive are the calls of the source. The rule behind the calls is not given here.

In data set [1] the test system is GM04663. The data set is described as follows: Corrector activity at aberrant splicing of ELP1 gene […] mutant (unknown origin) in human GM04663 cells assessed as increase in exon 20 inclusion at 50 uM by Capillary electrophoresis. The data set is classed as cell-based.
For data set [2], the system named is GM04663. The experiment in a line: Corrector activity at aberrant splicing of ELP1 gene […] mutant (unknown origin) in human GM04663 cells assessed as increase in exon 20 inclusion at 10 uM by Capillary electrophoresis. The class given is cell-based.
The nature of data set [3]: Cytotoxicity against human GM04663 cell assessed as decrease in resazurin signal incubated with resazurin for 48 hrs by M2 reader analysis. The class given is functional. Also on record: scale not given: the % may be the effect or the level left. A general note: The colour change of resazurin is a common sign of viable cells or microbes.
A further data set relates to BJ. The experiment in a line: Cytotoxicity against human BJ cell assessed as decrease in resazurin signal incubated with resazurin for 3 hrs by M2 reader analysis. The class given is toxicity, cell-based. The arrangement: scale not given: the % may be the effect or the level left.
In a further data set the test system is HaCaT. The data set is described as follows: Cytotoxicity against human HaCaT cell assessed as decrease in resazurin signal incubated with resazurin for 3 hrs by M2 reader analysis. The data set is classed as toxicity, cell-based. Also on record: scale not given: the % may be the effect or the level left.
For the next data set, the system named is ARPE-19. The data set is described as follows: Cytotoxicity against human ARPE-19 cell assessed as decrease in resazurin signal incubated with resazurin for 1 hrs by M2 reader analysis. Conditions: arpe-19, 1 h. Also on record: scale not given: the % may be the effect or the level left. The data set is classed as toxicity, cell-based.

Turning to `CN(Cc1ccco1)c1cc(Cl)nc(N)n1`, in the data set with GM04663 [1], the result was Active. Consider `c1coc(CNc2ncnc3[nH]cnc23)c1`, for which, in the data set on GM04663 [2], the result was Active. In the case of `CCCOc1nc2c(NCc3ccco3)ncnc2[nH]1`, the result in the data set with GM04663 [2] was Active. On the same count and under the same terms, as for `Cn1cnc2nc(Cl)nc(NCc3ccco3)c21`, the entry is “Active”; as for `c1csc(CNc2[nH]cnc3ncnc2-3)c1`, “inactive”; as for `CCCn1cnc2ncnc(NCc3ccco3)c21`, “inactive”.

For `Clc1nc(NCc2ccco2)c2[nH]cnc2n1`, in the data set on GM04663 [2], the outcome was Active. The Activity in data set [3] is over 20%; in the data set with BJ it was over 20%; with HaCaT, over 20%; with ARPE-19 it was under 20%. As for `Nc1nc2c(NCc3ccco3)nc(Cl)nc2[nH]1`, the outcome with GM04663 [2] was inactive. As to `Cn1cnc2ncnc(NCc3ccco3)c21`, the outcome in the data set with GM04663 [2] was Active. For the compound `Nc1c(Cl)ncnc1NCc1ccco1`, the result with GM04663 [1] was Active.

For `NCCNc1nc2c(NCc3ccco3)ncnc2[nH]1`, the outcome in the data set on GM04663 [2] was Active. In the case of `Fc1nc(NCc2ccco2)c2nc[nH]c2n1`, in the data set with GM04663 [2], the result was Active. Further, the Activity was over 20% in data set [3], over 20% in the data set on BJ, over 20% with HaCaT and under 20% with ARPE-19.

In the case of `Clc1cc(NCc2ccco2)ncn1`, in the data set on GM04663 [1], the result was Active.

With `c1ccc(Nc2nc3c(NCc4ccco4)ncnc3[nH]2)cc1`, the outcome in the data set on GM04663 [2] was Active. The Activity was over 20% in data set [3], over 20% in the data set with BJ, over 20% with HaCaT and under 20% with ARPE-19. For the compound `CN(C)CCOc1nc2c(NCc3ccco3)ncnc2[nH]1`, the outcome in the data set on GM04663 [2] was Active. Same read-out and setting: as for `CN(C)CCNc1nc2c(NCc3ccco3)ncnc2[nH]1`, the entry is “Active”; as for `Clc1nc(NCc2ccco2)c2nc(Cl)[nH]c2n1`, “Active”. For the compound `O=c1[nH]c2ncnc(NCc3ccco3)c2[nH]1`, in the data set with GM04663 [2], the result was Active. `Nc1nc(Cl)cc(NCc2ccco2)n1`: the outcome in the data set with GM04663 [1] was Active. Regarding `COc1nc2c(NCc3ccco3)ncnc2[nH]1`, the result in the data set with GM04663 [2] was Active.

For the compound `C=CCNc1nc2c(NCc3ccco3)ncnc2[nH]1`, the result in the data set with GM04663 [2] was Active. Still for that read-out and setting: next, `c1coc(CNc2ncnc3[nH]c(NCCCN4CCOCC4)nc23)c1`: “Active”; `Nc1nc2c(NCc3ccco3)ncnc2[nH]1`: “Active”. As for `c1ccc(CNc2nc3c(NCc4ccco4)ncnc3[nH]2)cc1`, the result in the data set on GM04663 [2] was Active. Further, the Activity was over 20% in data set [3], over 20% in the data set with BJ, over 20% with HaCaT and under 20% with ARPE-19. With `CSc1nc2c(NCc3ccco3)ncnc2[nH]1`, the outcome in the data set on GM04663 [2] was Active. `Ic1nc2c(NCc3ccco3)ncnc2[nH]1`: the outcome in the data set on GM04663 [2] was inactive.
